Results as given in ChEMBL document CHEMBL1201862, “PubChem BioAssay data set” (2004).
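Interpolation was linear, between the two tested concentrations surrounding the appropriate level; five concentrations were tested over 48 hours in 96-well plates. Abbreviation: GI50, concentration required for 50% inhibition of growth.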 Active and inactive are the calls of the source. Cut-off read from the data, not from the text of the source: active = GI50 up to about 1.1 µM and inactive = higher.

What was measured:
Assay in all cases: NCI tumour cell line growth inhibition, 48 h
MDA-N = system: MDA-N
DLD-1 = system: DLD-1
HOP-18 = system: HOP-18
DMS-273 = system: DMS-273
LXFL 529 = system: LXFL 529
SNB-78 = system: SNB-78
DMS-114 = system: DMS-114
XF498 = system: XF498
RXF 631 = system: RXF 631

Cc1cc(S(=O)(=O)Nc2nnc3cc(C(F)(F)F)cc(C)n23)c(S)cc1Cl
GI50 (MDA-N): > 100 µM (inactive)

O=C(O)c1cc(C(=O)O)nc(C(=O)O)c1
GI50 (MDA-N): > 100 µM (inactive)

Cc1ccc(-c2nc3cc([N+](=O)[O-])ccc3[nH]2)cc1
GI50 (MDA-N): > 100 µM (inactive)

N=C1c2ccccc2C(=O)c2c(NCCNCCO)ccc(O)c21
GI50 (DLD-1): 5.92 µM (inactive) | GI50 (HOP-18): 11.5 µM (inactive) | GI50 (DMS-273): 5.57 µM (inactive) | GI50 (LXFL 529): 6.5 µM (inactive) | GI50 (SNB-78): 18.8 µM (inactive) | GI50 (DMS-114): 3.93 µM (inactive)

Nc1nc2c(C(=O)NCc3cccs3)nnn2c2cccc(Cl)c12
GI50 (MDA-N): > 100 µM (inactive)

CC[P+](c1ccccc1)(N(C)C)N(C)C
GI50 (MDA-N): > 100 µM (inactive)

CC1=C2CCCC2C/C(=N/Nc2ccc([N+](=O)[O-])cc2[N+](=O)[O-])CC1 (stereo unspecified)
GI50 (XF498): > 100 µM (inactive) | GI50 (HOP-18): > 100 µM (inactive) | GI50 (DMS-273): > 100 µM (inactive) | GI50 (LXFL 529): > 100 µM (inactive) | GI50 (RXF 631): > 100 µM (inactive) | GI50 (DMS-114): > 100 µM (inactive)

CC(C)C1OC(/C=C/c2ccccc2)OCC1(C)C (stereo unspecified)
GI50 (MDA-N): 36.3 µM (inactive)

COc1c(O)c2ccccc2c2cc(O)ccc12
GI50 (DLD-1): 8.79 µM (inactive) | GI50 (XF498): 2.69 µM (inactive) | GI50 (HOP-18): 1.75 µM (inactive) | GI50 (DMS-273): 6.65 µM (inactive) | GI50 (LXFL 529): 2.59 µM (inactive) | GI50 (SNB-78): 15.5 µM (inactive) | GI50 (MDA-N): 1.08 µM (active) | GI50 (DMS-114): 1.97 µM (inactive)

CN(C)c1ccc2nc3c(C(=O)O)cc(O)c(O)c3[o+]c2c1
GI50 (MDA-N): 23.1 µM (inactive)

O=P1(Oc2ccccc2)N=P(c2ccccc2)(c2ccccc2)C=C(c2ccc(Cl)cc2)N1 (stereo unspecified)
GI50 (MDA-N): 8.87 µM (inactive)

COC(=O)[C@@H]1CN(C(=O)CCc2ccccc2)C(=O)N1
GI50 (MDA-N): > 100 µM (inactive)

Cc1c2c(c(O)c3c(O)cccc13)C(=O)C1(O)C(=O)C(C(=O)NCNc3ccc(C(N)=O)cn3)=C(O)C(N(C)C)C1C2 (stereo unspecified)
GI50 (MDA-N): 4.49 µM (inactive)

C[C@]12CCC(=O)C=C1CC[C@@H]1C2CC[C@]2(C)Nc3c(cnn3-c3ccccc3)CC12 (stereo partly specified)
GI50 (DLD-1): > 100 µM (inactive) | GI50 (XF498): > 100 µM (inactive) | GI50 (DMS-273): > 100 µM (inactive) | GI50 (LXFL 529): > 100 µM (inactive) | GI50 (SNB-78): > 100 µM (inactive) | GI50 (RXF 631): 96.8 µM (inactive) | GI50 (DMS-114): > 100 µM (inactive)

COc1ccc(N2C(=O)CSC2c2cc(OC)c(OC)c(OC)c2)cc1 (stereo unspecified)
GI50 (MDA-N): 9.68 µM (inactive)

CCN(CC)CCCN(c1cc(OC)cc2nccnc12)S(=O)(=O)c1ccc(C)cc1
GI50 (DLD-1): > 100 µM (inactive) | GI50 (XF498): > 100 µM (inactive) | GI50 (HOP-18): > 100 µM (inactive) | GI50 (DMS-273): > 100 µM (inactive) | GI50 (LXFL 529): > 100 µM (inactive) | GI50 (RXF 631): > 100 µM (inactive) | GI50 (DMS-114): > 100 µM (inactive)

CC(=O)Nc1ccc(N2C(=O)/C(=C\c3cccc(Oc4ccccc4)c3)SC2c2ccccc2)cc1 (stereo unspecified)
GI50 (MDA-N): 18.9 µM (inactive)

C/C(=N/NC(=O)C[n+]1ccccc1)C(CN(CC(C)C)CC(C)C)C(=O)Nc1ccc(C)cc1C (stereo unspecified)
GI50 (DLD-1): > 100 µM (inactive) | GI50 (RXF 631): > 100 µM (inactive) | GI50 (DMS-114): > 100 µM (inactive)

c1ccc(C(CCN2CCCC2)c2ccccn2)cc1 (stereo unspecified)
GI50 (MDA-N): > 100 µM (inactive)

O=C(N/N=C/c1c(-c2ccccc2)no[n+]1[O-])N1CCOCC1
GI50 (MDA-N): > 100 µM (inactive)

Cc1c(C=C(C#N)C#N)c(=O)n(C)c(=O)n1C
GI50 (MDA-N): > 100 µM (inactive)

Cc1c(C)c(C)c(-n2c(=O)n(C)c(=O)n2-c2cc(C(C)(C)C)cc(C(C)(C)C)c2O)c(C)c1C
GI50 (MDA-N): 10.5 µM (inactive)

C=CCn1c(=O)c2ccccc2[n+]2c(-c3cccc([N+](=O)[O-])c3)csc12
GI50 (MDA-N): 66.2 µM (inactive)

CCn1c(=O)c2cn[nH]c2n(C)c1=O
GI50 (MDA-N): > 100 µM (inactive)

CCOc1ccc(NC(=O)CC2C(=O)Nc3ccccc3S2(=O)=O)cc1 (stereo unspecified)
GI50 (DLD-1): > 100 µM (inactive) | GI50 (XF498): 29.8 µM (inactive) | GI50 (HOP-18): > 100 µM (inactive) | GI50 (LXFL 529): > 100 µM (inactive) | GI50 (SNB-78): 90.4 µM (inactive) | GI50 (RXF 631): > 100 µM (inactive) | GI50 (DMS-114): > 100 µM (inactive)

Nc1c(-c2ccc(Cl)c(Cl)c2)c2ccc([N+](=O)[O-])cc2c(=O)n1-c1nc2ccccc2s1
GI50 (MDA-N): 0.697 µM (active)

COc1cccc(/C(Cl)=C(\C=O)c2cccc(OC)c2)c1
GI50 (DLD-1): 8.43 µM (inactive) | GI50 (XF498): 13.8 µM (inactive) | GI50 (HOP-18): 16.4 µM (inactive) | GI50 (DMS-273): 8.17 µM (inactive) | GI50 (LXFL 529): 5.65 µM (inactive) | GI50 (SNB-78): 4.24 µM (inactive) | GI50 (DMS-114): 3.12 µM (inactive)

Oc1ccc2c3c1OC1c4[nH]c5c(c4CC4(O)C(C2)N(CC2CC2)CC[C@]314)CC1(O)C2Cc3ccc(O)c4c3[C@@]1(CCN2CC1CC1)C5O4 (stereo partly specified)
GI50 (MDA-N): 18.4 µM (inactive)

Cc1n(Cc2ccccc2)c2c([n+]1C)C(=O)c1ccccc1C2=O
GI50 (MDA-N): 0.173 µM (active)

Cc1nsc2cc(Cl)n(C)c(=O)c12
GI50 (DLD-1): > 100 µM (inactive) | GI50 (XF498): > 100 µM (inactive) | GI50 (DMS-273): > 100 µM (inactive) | GI50 (LXFL 529): > 100 µM (inactive) | GI50 (SNB-78): > 100 µM (inactive) | GI50 (RXF 631): > 100 µM (inactive) | GI50 (DMS-114): > 100 µM (inactive)

COc1ccc(/C=C(/C#N)C(N)=O)cc1OC
GI50 (MDA-N): > 100 µM (inactive)

CC(C)(C)c1cc2c3c(c1)c(=O)c1cccc4c(O)c5cccc(c2=O)c5c-3c41
GI50 (DLD-1): 61 µM (inactive) | GI50 (XF498): 35.5 µM (inactive) | GI50 (HOP-18): > 100 µM (inactive) | GI50 (DMS-273): 26.1 µM (inactive) | GI50 (LXFL 529): > 100 µM (inactive) | GI50 (DMS-114): 10 µM (inactive)
